From the NIST ThermoML archive (doi:10.1021/je800193a)

Assay: excess molar enthalpy (molar enthalpy of mixing); xn = mol fraction of the nth substance listed
Settings: 101.3 kPa, Liquid, Flow calorimetry

CC(=O)c1ccccc1 [acetophenone] + CCCCCCC
excess molar enthalpy [kcal/mol]
Settings | 298.2 K | 313.2 K | 328.2 K | 338.2 K | 348.2 K
x1 = 0.0999 | 0.173 | 0.177 | 0.183 | 0.184 | 0.184
x1 = 0.2002 | 0.271 | 0.285 | 0.298 | 0.301 | 0.302
x1 = 0.3005 | 0.313 | 0.341 | 0.361 | 0.369 | 0.369
x1 = 0.3498 | 0.323 | 0.354 | 0.378 | 0.388 | 0.389
x1 = 0.4007 | 0.326 | 0.362 | 0.388 | 0.398 | 0.4
x1 = 0.4504 | 0.327 | 0.362 | 0.391 | 0.402 | 0.404
x1 = 0.5003 | 0.322 | 0.358 | 0.387 | 0.399 | 0.401
x1 = 0.5504 | 0.313 | 0.348 | 0.378 | 0.39 | 0.39
x1 = 0.6006 | 0.301 | 0.334 | 0.362 | 0.373 | 0.374
x1 = 0.6496 | 0.285 | 0.316 | 0.342 | 0.352 | 0.354
x1 = 0.6998 | 0.264 | 0.291 | 0.315 | 0.323 | 0.326
x1 = 0.8001 | 0.208 | 0.224 | 0.241 | 0.245 | 0.246
x1 = 0.8999 | 0.121 | 0.125 | 0.135 | 0.136 | 0.138

CC(=O)c1ccccc1 [acetophenone] + CCCCO
excess molar enthalpy [kcal/mol]
Settings | 298.2 K | 313.2 K | 328.2 K | 338.2 K | 348.2 K
x1 = 0.0996 | 0.149 | 0.172 | 0.187 | 0.193 | 0.197
x1 = 0.2005 | 0.241 | 0.283 | 0.314 | 0.326 | 0.335
x1 = 0.3001 | 0.298 | 0.357 | 0.394 | 0.412 | 0.423
x1 = 0.3501 | 0.317 | 0.379 | 0.422 | 0.44 | 0.452
x1 = 0.4002 | 0.331 | 0.396 | 0.441 | 0.46 | 0.472
x1 = 0.4504 | 0.34 | 0.406 | 0.452 | 0.471 | 0.483
x1 = 0.5005 | 0.344 | 0.41 | 0.456 | 0.473 | 0.485
x1 = 0.5506 | 0.343 | 0.407 | 0.452 | 0.469 | 0.479
x1 = 0.6006 | 0.337 | 0.399 | 0.44 | 0.455 | 0.463
x1 = 0.6504 | 0.326 | 0.382 | 0.419 | 0.432 | 0.44
x1 = 0.7001 | 0.309 | 0.358 | 0.391 | 0.4 | 0.407
x1 = 0.8 | 0.252 | 0.285 | 0.305 | 0.311 | 0.316
x1 = 0.9001 | 0.154 | 0.17 | 0.176 | 0.18 | 0.184

CC(=O)c1ccccc1 [acetophenone] + C1CCCCC1
excess molar enthalpy [kcal/mol]
Settings | 298.2 K | 313.2 K | 328.2 K | 338.2 K | 348.2 K
x1 = 0.1004 | 0.18 | 0.19 | 0.193 | 0.195 | 0.196
x1 = 0.1999 | 0.264 | 0.285 | 0.295 | 0.302 | 0.304
x1 = 0.2999 | 0.305 | 0.336 | 0.353 | 0.362 | 0.364
x1 = 0.3499 | 0.317 | 0.35 | 0.368 | 0.377 | 0.379
x1 = 0.4002 | 0.323 | 0.356 | 0.374 | 0.385 | 0.388
x1 = 0.4497 | 0.323 | 0.357 | 0.375 | 0.386 | 0.387
x1 = 0.4996 | 0.32 | 0.352 | 0.37 | 0.378 | 0.382
x1 = 0.5498 | 0.312 | 0.343 | 0.359 | 0.367 | 0.371
x1 = 0.6005 | 0.299 | 0.327 | 0.341 | 0.349 | 0.353
x1 = 0.6503 | 0.282 | 0.307 | 0.319 | 0.326 | 0.329
x1 = 0.7004 | 0.261 | 0.28 | 0.289 | 0.296 | 0.299
x1 = 0.8005 | 0.2 | 0.209 | 0.213 | 0.218 | 0.221
x1 = 0.8995 | 0.114 | 0.117 | 0.118 | 0.121 | 0.122

CC(=O)c1ccccc1 [acetophenone] + CCCCCC
excess molar enthalpy [kcal/mol]
Settings | 298.2 K | 313.2 K | 328.2 K
x1 = 0.0997 | 0.169 | 0.173 | 0.175
x1 = 0.2 | 0.263 | 0.277 | 0.285
x1 = 0.2994 | 0.306 | 0.329 | 0.342
x1 = 0.3503 | 0.317 | 0.343 | 0.357
x1 = 0.4006 | 0.321 | 0.349 | 0.365
x1 = 0.4503 | 0.321 | 0.35 | 0.367
x1 = 0.4995 | 0.316 | 0.346 | 0.363
x1 = 0.5494 | 0.308 | 0.336 | 0.353
x1 = 0.5999 | 0.295 | 0.319 | 0.337
x1 = 0.6499 | 0.278 | 0.293 | 0.313
x1 = 0.7005 | 0.257 | 0.265 | 0.277
x1 = 0.8 | 0.2 | 0.203 | 0.207
x1 = 0.8995 | 0.113 | 0.115 | 0.117

CC(=O)c1ccccc1 [acetophenone] + CCOC(C)=O
excess molar enthalpy [kcal/mol]
Settings | 298.2 K | 313.2 K | 328.2 K
x1 = 0.1 | -0.00292 | -0.00284 | -0.0028
x1 = 0.2004 | -0.00509 | -0.00495 | -0.0049
x1 = 0.2999 | -0.0066 | -0.00636 | -0.00626
x1 = 0.3501 | -0.00707 | -0.00679 | -0.00674
x1 = 0.4002 | -0.00739 | -0.00703 | -0.00693
x1 = 0.4503 | -0.00755 | -0.00715 | -0.00698
x1 = 0.5002 | -0.00755 | -0.0071 | -0.00688
x1 = 0.5997 | -0.00717 | -0.00667 | -0.00638
x1 = 0.7005 | -0.00629 | -0.00574 | -0.0054
x1 = 0.8004 | -0.00483 | -0.0043 | -0.00392
x1 = 0.9003 | -0.00246 | -0.00234 | -0.00196

CC(=O)c1ccccc1 [acetophenone] + CC(C)CO
excess molar enthalpy [kcal/mol]
Settings | 298.2 K | 313.2 K | 328.2 K | 338.2 K | 348.2 K
x1 = 0.1005 | 0.166 | 0.192 | 0.219 | 0.223 | 0.225
x1 = 0.201 | 0.263 | 0.312 | 0.356 | 0.367 | 0.369
x1 = 0.301 | 0.327 | 0.39 | 0.449 | 0.46 | 0.462
x1 = 0.3512 | 0.346 | 0.414 | 0.476 | 0.488 | 0.491
x1 = 0.4014 | 0.361 | 0.432 | 0.494 | 0.507 | 0.509
x1 = 0.4516 | 0.371 | 0.443 | 0.504 | 0.516 | 0.519
x1 = 0.5017 | 0.375 | 0.446 | 0.505 | 0.516 | 0.52
x1 = 0.5518 | 0.373 | 0.443 | 0.498 | 0.508 | 0.51
x1 = 0.6016 | 0.366 | 0.432 | 0.482 | 0.489 | 0.492
x1 = 0.6513 | 0.354 | 0.415 | 0.456 | 0.463 | 0.467
x1 = 0.7008 | 0.335 | 0.389 | 0.423 | 0.426 | 0.428
x1 = 0.8016 | 0.271 | 0.305 | 0.324 | 0.325 | 0.329
x1 = 0.901 | 0.164 | 0.177 | 0.183 | 0.185 | 0.187

CC(=O)c1ccccc1 [acetophenone] + CCCCCO
excess molar enthalpy [kcal/mol]
Settings | 298.2 K | 313.2 K | 328.2 K | 338.2 K | 348.2 K
x1 = 0.1003 | 0.151 | 0.174 | 0.186 | 0.19 | 0.192
x1 = 0.1998 | 0.24 | 0.283 | 0.311 | 0.324 | 0.328
x1 = 0.2998 | 0.298 | 0.356 | 0.394 | 0.412 | 0.417
x1 = 0.3497 | 0.316 | 0.378 | 0.421 | 0.44 | 0.447
x1 = 0.4001 | 0.33 | 0.396 | 0.441 | 0.461 | 0.468
x1 = 0.4496 | 0.338 | 0.407 | 0.453 | 0.473 | 0.48
x1 = 0.4994 | 0.343 | 0.411 | 0.457 | 0.477 | 0.484
x1 = 0.5497 | 0.342 | 0.41 | 0.453 | 0.473 | 0.478
x1 = 0.6004 | 0.336 | 0.402 | 0.442 | 0.459 | 0.464
x1 = 0.6501 | 0.325 | 0.386 | 0.422 | 0.438 | 0.441
x1 = 0.7003 | 0.307 | 0.363 | 0.393 | 0.408 | 0.41
x1 = 0.8004 | 0.252 | 0.291 | 0.306 | 0.315 | 0.318
x1 = 0.8995 | 0.156 | 0.174 | 0.177 | 0.182 | 0.184
